For this experiment, the target named is BMAL1 (Homo sapiens, UniProt O00327). Set-up: PASB domain (residues 338–449); Protein thermal shift (PTS) fragment screen on recombinant human BMAL1(PASB), shift of melting temperature. The note with it: dTmB; binder.
BMAL1, sequence (O00327 338-449): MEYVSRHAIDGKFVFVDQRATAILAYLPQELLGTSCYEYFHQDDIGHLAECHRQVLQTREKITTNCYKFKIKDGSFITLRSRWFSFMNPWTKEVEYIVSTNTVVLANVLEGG
With `OCCCN1CCN(c2ccccc2)CC1` [Prestw-Frag-1944, Compound 178], the “Bmal1(PASB) dTmB” value is -0.31 °C.

`Cc1cc(C(C)(C)C)cc(C)c1CC1=NCCN1` [Prestw-Frag-1575, Compound 425]: the “Bmal1(PASB) dTmB” value is -1.26 °C. For the compound `CC(=O)c1ccc2c(c1)Nc1ccccc1S2` [Prestw-Frag-2239, Compound 65], the “Bmal1(PASB) dTmB” value was found to be 0.31 °C.

`O=C(O)c1cnccn1` [Prestw-Frag-1495, Compound 269]: the “Bmal1(PASB) dTmB” value was 0.04 °C. The figure for `COc1cc(C)cc(C)c1C` [Prestw-Frag-1506, Compound 359] is -0.12 °C; for `Cc1c(N)cccc1C(F)(F)F` [Prestw-Frag-1189, Compound 334] it is -0.15 °C; for `Oc1cccc(CN2CCCCC2)c1` [Prestw-Frag-2809, Compound 115] it is -0.43 °C.

For the compound `Cc1[nH]c2ccccc2c1CC(=O)O` [Prestw-Frag-1824, Compound 477], the “Bmal1(PASB) dTmB” value was -6.48 °C. `c1ccc(C2CNCCO2)cc1` (stereo not shown) [Prestw-Frag-2958, Compound 322]: the “Bmal1(PASB) dTmB” value is -0.55 °C. In the case of `NC1=NCCN1` [Prestw-Frag-1268, Compound 246], the “Bmal1(PASB) dTmB” value was -0.47 °C. For `COc1cc(C(N)=O)cc(OC)c1OC` [Prestw-Frag-1731, Compound 341] the value was -0.33 °C. Consider `CC(=O)Nc1nncs1` [Prestw-Frag-1008, Compound 401], for which the “Bmal1(PASB) dTmB” value was -0.09 °C. For `O=C1Cc2cc(F)ccc2N1` [Prestw-Frag-3667, Compound 261], the “Bmal1(PASB) dTmB” value is -0.23 °C. For `CC1(c2ccccc2)NC(=O)NC1=O` (stereo not shown) [Prestw-Frag-2652, Compound 273] the value was -0.17 °C. For `NCCOCc1ccccc1` [Prestw-Frag-3749, Compound 335] the value was 0.05 °C; for `CC(Oc1ccccc1)C(N)=O` (stereo not shown) [Prestw-Frag-1200, Compound 240], -0.43 °C. For `COc1ccc2nc(SC)[nH]c2c1` [Prestw-Frag-2118, Compound 167] the value was 1.19 °C; for `NC(=O)Cc1cccs1` [Prestw-Frag-1019, Compound 237], -0.24 °C; for `Fc1ccc(C(c2ccc(F)cc2)N2CCNCC2)cc1` [Prestw-Frag-1323, Compound 452], -2.55 °C. Turning to `O=c1[nH]ncc2ccccc12` [Prestw-Frag-1560, Compound 345], the “Bmal1(PASB) dTmB” value is -0.38 °C.

On to `Cn1ccc(=O)[nH]1` [Prestw-Frag-3664, Compound 92], for which the “Bmal1(PASB) dTmB” value turned out to be 0.17 °C. Regarding `Oc1cc(Cl)c(Cl)cc1Cl` [Prestw-Frag-2898, Compound 59], the “Bmal1(PASB) dTmB” value was -0.02 °C.

In the case of `CC(=O)N1CCN(c2ccc(O)cc2)CC1` [Prestw-Frag-2047, Compound 27], the “Bmal1(PASB) dTmB” value is -2.09 °C. The figure for `CCN(CCCCO)C(C)Cc1ccc(OC)cc1` (stereo not shown) [Prestw-Frag-2440, Compound 249] is -0.23 °C; for `O=C(Nc1ccccc1Cl)c1ccccc1O` [Prestw-Frag-1545, Compound 383] it is 1.33 °C; for `Cc1ccc(N)c(C#N)c1` [Prestw-Frag-3060, Compound 394] it is -0.18 °C.

Turning to `O=C1CN(Cc2ccccc2)CCN1` [Prestw-Frag-3459, Compound 48], the “Bmal1(PASB) dTmB” value was -0.65 °C. For the compound `OCC(O)COc1ccc(Cl)cc1` (stereo not shown) [Prestw-Frag-2229, Compound 393], the “Bmal1(PASB) dTmB” value worked out at 0.07 °C. With `COc1cc2c(cc1O)CCN[C@H]2C` [Prestw-Frag-1063, Compound 388], the “Bmal1(PASB) dTmB” value was -0.57 °C.

As to `NC(=O)Cc1ccccn1` [Prestw-Frag-1971, Compound 173], the “Bmal1(PASB) dTmB” value is -0.17 °C. For `NS(=O)(=O)c1ccccc1C(F)(F)F` [Prestw-Frag-1394, Compound 374] the value was -0.07 °C; for `NS(=O)(=O)c1ccc(Cl)cc1` [Prestw-Frag-1977, Compound 122], -0.58 °C; for `c1cc2c(s1)CCNC2` [Prestw-Frag-1694, Compound 112], -0.53 °C. For the compound `O=C(O)c1cccnc1` [Prestw-Frag-2541, Compound 64], the “Bmal1(PASB) dTmB” value was -0.10 °C. Take `CNC(=O)c1c(-c2ccccc2)noc1C` [Prestw-Frag-3690, Compound 210]: the “Bmal1(PASB) dTmB” value was -0.42 °C. The figure for `Fc1cccnc1N1CCCC1` [Prestw-Frag-3150, Compound 24] is -0.14 °C; for `Nc1ccnc2ccccc12` [Prestw-Frag-1878, Compound 323] it is -0.67 °C. For `CN1CCN(CCCC(=O)c2ccc(F)cc2)CC1` [Prestw-Frag-3692, Compound 279] the value was -0.28 °C; for `N#CC1(c2ccc(F)cc2)CCCCC1` [Prestw-Frag-2647, Compound 433], -0.64 °C. With `Nc1nc2ccccc2o1` [Prestw-Frag-2256, Compound 309], the “Bmal1(PASB) dTmB” value was -0.33 °C. The figure for `N=C(N)CSCc1ccccc1` [Prestw-Frag-2348, Compound 201] is 0.25 °C; for `Cc1nc(-c2ccccc2F)cs1` [Prestw-Frag-3745, Compound 298] it is -0.20 °C; for `COC(=O)c1scc(C)c1N` [Prestw-Frag-1111, Compound 362] it is -0.95 °C. The figure for `c1cncc(CN2CCNCC2)c1` [Prestw-Frag-3722, Compound 288] is -0.77 °C; for `CN1CCN(c2nccc(N)n2)CC1` [Prestw-Frag-1204, Compound 238] it is -0.40 °C; for `Nc1ccccn1` [Prestw-Frag-2443, Compound 228] it is 0.09 °C. As to `NCCc1c[nH]c2ccc(O)cc12` [Prestw-Frag-1643, Compound 78], the “Bmal1(PASB) dTmB” value is -0.60 °C. Regarding `Cc1noc(N)c1C` [Prestw-Frag-2021, Compound 114], the “Bmal1(PASB) dTmB” value was -0.18 °C. For the compound `c1cc2c(cc1CN1CCNCC1)OCO2` [Prestw-Frag-1397, Compound 232], the “Bmal1(PASB) dTmB” value is -0.60 °C. As to `COc1cc2c(cc1OC)C(C)NCC2` (stereo not shown) [Prestw-Frag-2193, Compound 348], the “Bmal1(PASB) dTmB” value was -0.74 °C. With `COc1ccc(Cl)cc1C(N)=O` [Prestw-Frag-1775, Compound 316], the “Bmal1(PASB) dTmB” value was -0.78 °C. Regarding `CCN(CC)Cc1cc(N)ccc1O` [Prestw-Frag-1462, Compound 5], the “Bmal1(PASB) dTmB” value is -4.46 °C.

As for `O=C(O)CCC(=O)c1ccccc1` [Prestw-Frag-1768, Compound 87], the “Bmal1(PASB) dTmB” value was -0.11 °C.

Take `Cc1nc(-c2ccccc2)cs1` [Prestw-Frag-3743, Compound 378]: the “Bmal1(PASB) dTmB” value was -0.52 °C. In the case of `NS(=O)(=O)c1ccccc1` [Prestw-Frag-1895, Compound 148], the “Bmal1(PASB) dTmB” value is -0.29 °C. For the compound `c1ccc(CC2NCCc3ccccc32)cc1` (stereo not shown) [Prestw-Frag-1444, Compound 267], the “Bmal1(PASB) dTmB” value is -1.30 °C. In the case of `Cc1cc(C2CCCCC2)n(O)c(=O)c1` [Prestw-Frag-2092, Compound 58], the “Bmal1(PASB) dTmB” value is -1.46 °C.

`NCCc1cnc[nH]1` [Prestw-Frag-1999, Compound 330]: the “Bmal1(PASB) dTmB” value was -0.23 °C.

Regarding `O=C(O)Cc1cccs1` [Prestw-Frag-2140, Compound 161], the “Bmal1(PASB) dTmB” value is -0.19 °C. On to `OCCOc1cccc2[nH]ccc12` [Prestw-Frag-1595, Compound 110], for which the “Bmal1(PASB) dTmB” value is -0.17 °C.

For `c1ccc2c(c1)CCCN2` [Prestw-Frag-3137, Compound 43], the “Bmal1(PASB) dTmB” value worked out at 0.06 °C. As for `NC(=O)Cc1ccccc1` [Prestw-Frag-2580, Compound 73], the “Bmal1(PASB) dTmB” value was -0.74 °C. On to `c1ccc(-n2cccn2)cc1` [Prestw-Frag-3759, Compound 239], for which the “Bmal1(PASB) dTmB” value is -0.29 °C.

In the case of `O=C(O)Cc1ccccc1` [Prestw-Frag-2579, Compound 132], the “Bmal1(PASB) dTmB” value is -0.05 °C. For `Nc1ccc2c(c1)CCCC2` [Prestw-Frag-3682, Compound 71] the value was 0.33 °C. For `O=C(O)c1ccccc1Nc1cccc(Cl)c1` [Prestw-Frag-1319, Compound 28] the value was -2.88 °C; for `c1ccc2c3c([nH]c2c1)CNCC3` [Prestw-Frag-1014, Compound 154], -0.81 °C; for `COc1ccc2nc(N)sc2c1` [Prestw-Frag-1898, Compound 305], 1.10 °C. Turning to `c1ccc(C2CCNCC2)cc1` [Prestw-Frag-2537, Compound 310], the “Bmal1(PASB) dTmB” value is -0.53 °C. On to `CCC1=C(C)CN(C(=O)NCCc2ccccc2)C1=O` [Prestw-Frag-1075, Compound 420], for which the “Bmal1(PASB) dTmB” value is -0.68 °C. Turning to `Cc1[nH]cnc1CO` [Prestw-Frag-3752, Compound 153], the “Bmal1(PASB) dTmB” value turned out to be 0.29 °C. As for `NC1CCN(Cc2ccccc2)CC1` [Prestw-Frag-2060, Compound 207], the “Bmal1(PASB) dTmB” value was -0.05 °C. Consider `Nc1nc(N)nc(-c2ccccc2)n1` [Prestw-Frag-3190, Compound 387], for which the “Bmal1(PASB) dTmB” value was -0.27 °C. In the case of `Nc1nc2c(s1)CCCC2` [Prestw-Frag-2972, Compound 480], the “Bmal1(PASB) dTmB” value is -5.59 °C. As to `O=C(O)/C=C/c1cnc[nH]1` [Prestw-Frag-3090, Compound 19], the “Bmal1(PASB) dTmB” value was -1.08 °C. For `O=C(Cc1ccccc1)NO` [Prestw-Frag-1961, Compound 252] the value was -0.30 °C. Turning to `Nc1nncs1` [Prestw-Frag-1009, Compound 188], the “Bmal1(PASB) dTmB” value was -0.33 °C. On to `CC(=O)N(CCC(=O)O)c1ccccc1` [Prestw-Frag-2487, Compound 222], for which the “Bmal1(PASB) dTmB” value was determined as 0.04 °C. On to `Cc1cc(=O)[nH]c(=S)[nH]1` [Prestw-Frag-2127, Compound 68], for which the “Bmal1(PASB) dTmB” value was -0.75 °C.
